Test results as given in patent publication US4191760A, “Dibenzodiazepines” (Abbott Laboratories, priority 1978, dated 1980).

Experiments:
[1] = system: brain homovanillic acid (HVA); test: Effect of Drug Compounds on Brain Level of Homovanillic Acid (HVA); type: in vivo, male Long Evans rats; conditions: brain HVA as ratio to control group (control 1.0); 0.15 mmoles/kg intraperitoneally; brains minus cerebella two or three hours later; ratios greater than 1.6 of practical significance
Experimental: Effect of Drug Compounds on Brain Level of Homovanillic Acid (HVA)
In testing for the effectiveness of the present drug compounds on the brain level of homovanillic acid (HVA), the drugs were administered intraperitoneally to male Long Evans rats (Simonsen) usually as aqueous solutions but in certain cases as suspensions in 0.5% methocel in 0.9% saline. The standard testing dose was 0.15 mmoles/kg body weight. The test and control groups consisted of 3-5 and 5 animals, respectively. The analyses were performed on brains (minus cerebella) removed two or three hours later. In the analyses, standard extraction and fluorimetric methods were used.

[2] = system: Methamphetamine induced hyperactivity; test: Antagonism of Methamphetamine induced hyperactivity in rats; type: in vivo, Male Long-Evans black hooded rats; conditions: one hour prior to Methamphetamine 1 mg./kg. intraperitoneal; for ED50: Rattus norvegicus, oral, activity counts at one and two hour intervals, read with sign (+)/(-); for potentiation (+) or antagonism (-) of Methamphetamine: oral 5, 20 and 80 mg./kg., sign printed beside the oral ED50
Experimental: Effectiveness of Drug Compound on Inhibiting Methamphetamine Antagonism in Rats
Male Long-Evans black hooded rats, weighing between 100 and 150 grams, were administered the test drugs at oral doses of 5, 20 and 80 mg./kg. one hour prior to the administration of Methamphetamine at an intraperitoneal dose of 1 mg./kg. Three animals were tested at each dose level. […] Antagonism of Methamphetamine induced hyperactivity was recorded as digital counts received from the photocells at one and two hour intervals. Placebo controls received a volume dose of the 0.5 carboxymethylcellulose vehicle. The data were evaluated by a one-way analysis of variance computer program.
In the results, a (+) indicates a potentiation of Metamphetamine and a (-) is antagonism of Metamphetamine.

## Clc1ccc2c(c1)N=C(N1CCCN(C3CC3)CC1)c1ccccc1N2 [IX, 8-Chloro-11-(4-cyclopropyl-1-homopiperazinyl)-5H-dibenzo[b,e][1,4]diazepine]
[1]
  HVA Ratio: 0.9
[2]
  ED50: 5 mg/kg
  potentiation (+) or antagonism (-) of Methamphetamine: +

## Clc1ccc2c(c1)N=C(N1CCN(CC3CC3)CC1)c1ccccc1N2 [VI, 8-Chloro-11-(4-cyclopropylmethyl-piperazinyl)-5H-dibenzo[b,e][1,4]diazepine]
[1]
  HVA Ratio: 3.4
[2]
  ED50: 80 mg/kg
  potentiation (+) or antagonism (-) of Methamphetamine: +

## Clc1ccc2c(c1)N=C(N1CCN(C3CC3)CC1)c1ccccc1N2 [VII, 8-Chloro-11-(4-cyclopropyl-1-piperazinyl)-5H-dibenzo[b,e][1,4]diazepine]
[1]
  HVA Ratio: 1.1
[2]
  ED50: 60 mg/kg
  potentiation (+) or antagonism (-) of Methamphetamine: -

## C#CCN1CCN(C2=Nc3cc(Cl)ccc3Nc3ccccc32)CC1 [VIII, 8-Chloro-11-(4-propargyl-1-piperazinyl)-5H-dibenzo[b,e][1,4]diazepine]
[1]
  HVA Ratio: 0.9
[2]
  ED50: 5 mg/kg
  potentiation (+) or antagonism (-) of Methamphetamine: +

## CN1CCCN(C2=Nc3cc(Cl)ccc3Nc3ccccc32)CC1 [X, 8-Chloro-11-(4-methyl-1-homopiperazinyl)-5H-dibenzo[b,e][1,4]diazepine]
[1]
  HVA Ratio: 1.0
[2]
  ED50: 9 mg/kg
  potentiation (+) or antagonism (-) of Methamphetamine: +

## O=CN1CCCN(C2=Nc3cc(Cl)ccc3Nc3ccccc32)CC1 [XI, 8-Chloro-11-(4-formyl-1-homopiperazinyl)-5H-dibenzo[b,e][1,4]diazepine]
[1]
  HVA Ratio: 1.0
[2]
  ED50: 80 mg/kg
  potentiation (+) or antagonism (-) of Methamphetamine: +

## Clc1ccc2c(c1)N=C(N1CCCN(CC3CC3)CC1)c1ccccc1N2 [XII, 8-Chloro-11-(4-cyclopropylmethyl-1-homopiperazine)-5H-dibenzo[b,e][1,4]diazepine]
[1]
  HVA Ratio: 0.9
[2]
  ED50: 80 mg/kg
  potentiation (+) or antagonism (-) of Methamphetamine: +
